{"source": "patent US20160115540A1", "about": "“PRODRUGS AND DRUGS” (Biogen MA Inc., priority 2013, published 2016)", "tested_on": "jejunum", "assay": "Transcriptional profiling on Affymetrix GeneChips, single dose, naïve mice: jejunum", "type": "in vivo, C57BL/6 mice", "details": "jejunum, 100DMF-vs-Veh", "description": "Treated mice were sacrificed at 2, 7, or 12 hours. Tissues (liver, spleen, kidney, jejunum, cortex, hippocampus, striatum and whole blood) were collected and analyzed by transcriptional profiling on mouse Affymetrix GeneChips.\nTissues (liver, spleen, kidney, jejunum, cortex, hippocampus, striatum and whole blood) were collected and analyzed by transcriptional profiling on mouse Affymetrix GeneChips.\nAnimals were exposed to CO2 and whole blood collected via cardiac puncture. Two 100 μl aliquots of whole blood were collected in 1.5 mL microcentrifuge tubes and snap frozen in liquid nitrogen. Peripheral (liver, spleen, kidney and jejunum) and CNS brain (cerebellum, hippocampus, striatum and cortex) tissues were harvested and snap frozen in liquid nitrogen, with special care taken to collect tissues of similar size and from the same location. All samples were stored at −80° C. until RNA extraction was conducted.\nFor RNA preparation, frozen tissues were placed in 2 mL RNAse-free 96-well blocks with 1.5 mL QIAzol Lysis Reagent (QIAgen) and a 3.2 mm stainless steel bead (BioSpec Products, Bartlesville, Okla.). Tissues were disrupted for four cycles of 45 seconds in a Mini-Beadbeater (Biospec Products). RNA was extracted in chloroform and the aqueous phase was mixed with an equal volume of 70% ethanol. Extracted RNA was applied to RNeasy 96 plates and purified by the spin method according to the manufacturer's protocol (RNeasy 96 Universal Tissue Protocol, QIAgen, Hilden Germany).\nAutomated sample amplifications and biotin labelings were carried out using the NuGEN Ovation RNA Amplification system V2 (Cat #3100), Ovation WB reagent (Cat #1300) and Encore Biotin module (Cat #4200) (NuGEN Technologies, Inc, San Carlos, Calif.) according to manufacturer's recommendations using an Arrayplex automated liquid handler (Beckman Coulter, Indianapolis, Ind.). Two micrograms of biotin labeled sscDNA probe were hybridized to Affymetrix GeneChip Affymetrix HT_MG-430_PM plate arrays with modified conditions as described in Allaire et al. Washing and staining of the hybridized arrays were completed as described in the GeneChip Expression analysis technical manual for HT plate arrays using the Genechip® Array Station (Affymetrix, Santa Clara, Calif.) with modifications as described in Allaire et al. The processed GeneChip® plate arrays were scanned using GeneTitan scanner (Affymetrix, Santa Clara, Calif.).\nAffymetrix scans were subject to quality control (QC) measures. These tests included a visual inspection of the distribution of raw signal intensities and an assessment of RNA degradation, relative log expression (RLE), and normalized unsealed standard error (NUSE). All sample scans that passed these QC metrics were included in the analysis.\nAll CEL files were subjected to GC-content-based Robust Multi-array Average (GCRMA) normalization (version 2.20.0) (Irizarry R A, et al. Nucleic Acids Res 2003; 31:e15; Li C, et al. Genome Biol 2001; 2:[…]0032). Expression levels were log (base 2) transformed.\nAll calculations and analyses were carried out using R (version 2.11.1) and Bioconductor computational tools (Gentleman R. Springer Science+Business Media 2005).", "note": "Counter-ions that a name gives are not always drawn."}
{"compound": "COC(=O)/C=C/C(=O)OC", "note": "[DMF, dimethyl fumarate]", "values": [{"measurement": "FC Tox3 (1436600_PM_at)", "setting": "2 h", "result": 1.70}, {"measurement": "FC Tsku (1440230_PM_at)", "setting": "2 h", "result": 1.61}, {"measurement": "FC Ugt2b5 (1419622_PM_at)", "setting": "2 h", "result": 3.40}, {"measurement": "FC Ugt2b35 (1439624_PM_at)", "setting": "2 h", "result": 3.22}, {"measurement": "FC Ugt2b36 (1455595_PM_at)", "setting": "2 h", "result": 2.07}, {"measurement": "FC Unc5cl (1429950_PM_at)", "setting": "2 h", "result": "−1.53"}, {"measurement": "FC probe 1441046_PM_at", "setting": "2 h", "result": 1.54}, {"measurement": "FC probe 1443118_PM_at", "setting": "2 h", "result": 1.91}, {"measurement": "FC probe 1444265_PM_at", "setting": "2 h", "result": 1.75}, {"measurement": "FC probe 1445980_PM_at", "setting": "2 h", "result": 2.92}, {"measurement": "FC probe 1446045_PM_at", "setting": "2 h", "result": 1.52}, {"measurement": "FC probe 1447411_PM_at", "setting": "2 h", "result": 2.88}, {"measurement": "FC probe 1459091_PM_at", "setting": "2 h", "result": 1.98}, {"measurement": "FC 9430069I07Rik (1431672_PM_at)", "setting": "7 h", "result": 2.76}, {"measurement": "FC Abcc3 (1428988_PM_at)", "setting": "7 h", "result": 1.88}, {"measurement": "FC Acsm5 (1437662_PM_at)", "setting": "7 h", "result": 1.60}, {"measurement": "FC Acss2 (1446542_PM_at)", "setting": "7 h", "result": 1.71}, {"measurement": "FC Akr1b8 (1448894_PM_at)", "setting": "7 h", "result": 8.53}, {"measurement": "FC Akr1c13 (1418672_PM_at)", "setting": "7 h", "result": 1.61}, {"measurement": "FC Akr1c19 (1455454_PM_at)", "setting": "7 h", "result": 2.07}, {"measurement": "FC Cbr1 (1460196_PM_at)", "setting": "7 h", "result": 1.65}, {"measurement": "FC Cbr3 (1427912_PM_at)", "setting": "7 h", "result": 22.39}, {"measurement": "FC Ces1e (1419510_PM_at)", "setting": "7 h", "result": 2.10}, {"measurement": "FC Ces1f (1424266_PM_s_at)", "setting": "7 h", "result": 3.58}, {"measurement": "FC Ces1g (1449486_PM_at)", "setting": "7 h", "result": 4.67}, {"measurement": "FC Ddc (1426215_PM_at)", "setting": "7 h", "result": 1.74}, {"measurement": "FC G6pd2 (1422327_PM_s_at)", "setting": "7 h", "result": 1.82}, {"measurement": "FC G6pdx (1448354_PM_at)", "setting": "7 h", "result": 1.54}, {"measurement": "FC Gclc (1424296_PM_at)", "setting": "7 h", "result": 2.06}, {"measurement": "FC Gclc (1455959_PM_s_at)", "setting": "7 h", "result": 1.88}, {"measurement": "FC Gsr (1421816_PM_at)", "setting": "7 h", "result": 2.83}, {"measurement": "FC Gss (1441931_PM_x_at)", "setting": "7 h", "result": 1.89}, {"measurement": "FC Gss (1448273_PM_at)", "setting": "7 h", "result": 1.97}, {"measurement": "FC Gsta2 (1421040_PM_a_at)", "setting": "7 h", "result": 5.81}, {"measurement": "FC Gsta2 (1421041_PM_s_at)", "setting": "7 h", "result": 1.72}, {"measurement": "FC Gsta3 (1423436_PM_at)", "setting": "7 h", "result": 4.27}, {"measurement": "FC Gsta3 (1423437_PM_at)", "setting": "7 h", "result": 3.89}, {"measurement": "FC Gstm1 (1416416_PM_x_at)", "setting": "7 h", "result": 3.19}, {"measurement": "FC Gstm1 (1425627_PM_x_at)", "setting": "7 h", "result": 3.45}, {"measurement": "FC Gstm1 (1448330_PM_at)", "setting": "7 h", "result": 3.40}, {"measurement": "FC Gstm2 (1416411_PM_at)", "setting": "7 h", "result": 1.58}, {"measurement": "FC Gstm3 (1427473_PM_at)", "setting": "7 h", "result": 2.82}, {"measurement": "FC Gstm3 (1427474_PM_s_at)", "setting": "7 h", "result": 1.79}, {"measurement": "FC Gstm4 (1424835_PM_at)", "setting": "7 h", "result": 3.83}, {"measurement": "FC Gstm6 (1422072_PM_a_at)", "setting": "7 h", "result": 1.94}, {"measurement": "FC Htatip2 (1451814_PM_a_at)", "setting": "7 h", "result": 1.51}, {"measurement": "FC Nqo1 (1423627_PM_at)", "setting": "7 h", "result": 2.31}, {"measurement": "FC Pir (1429001_PM_at)", "setting": "7 h", "result": 3.79}, {"measurement": "FC Setd4 (1425239_PM_at)", "setting": "7 h", "result": 1.90}, {"measurement": "FC Setd4 (1435405_PM_at)", "setting": "7 h", "result": 1.50}, {"measurement": "FC Setd4 (1460373_PM_a_at)", "setting": "7 h", "result": 1.50}, {"measurement": "FC Slc5a4b (1422757_PM_at)", "setting": "7 h", "result": 1.67}, {"measurement": "FC Txnrd1 (1424487_PM_x_at)", "setting": "7 h", "result": 1.60}, {"measurement": "FC Ugt2b5 (1419622_PM_at)", "setting": "7 h", "result": 3.42}, {"measurement": "FC Ugt2b35 (1439624_PM_at)", "setting": "7 h", "result": 2.66}, {"measurement": "FC Ugt2b36 (1455595_PM_at)", "setting": "7 h", "result": 2.23}, {"measurement": "FC Aldh1a7 (1418601_PM_at)", "setting": "12 h", "result": 1.65}, {"measurement": "FC Gstm1 (1416416_PM_x_at)", "setting": "12 h", "result": 3.56}, {"measurement": "FC Gstm2 (1416411_PM_at)", "setting": "12 h", "result": 2.04}]}
